Series [1] has as its system NCI-H460 cells. In words: Intracellular uptake and bioconversion by LC-MS of cell extracts. The conditions noted are these: 10 μM. The class given is in vitro ADME, Human. The protocol:
To test our hypothesis, intracellular uptake of DMCU, 1-TFA, and 2-TFA were evaluated in NCI-H460 cells which cells were more sensitive to 1-TFA and 2-TFA than DMCU. The intracellular drug uptake was generally evaluated using a fluorescence microscope or flow cytometry. However, the extremely similar chromophores among DMCU, 1-TFA, and 2-TFA caused failure in detection of individual signals by these two methodologies and therefore drew us to develop a versatile LC-MS based analysis for the cellular uptake evaluations. To estimate the cellular uptake, NCI-H460 cells were treated with each compound for the indicated time periods and the cell extracts were then subjected to LC-MS analysis to determine the intracellular levels of DMCU, 1-TFA, and […] (Figure 4). In the treatment groups, the intracellular levels of each compound were detected by LC-MS where the amount of the compound was quantified by comparing the LC-MS signals of cellular extracts to the corresponding drug calibration curves. […] The maximal uptake levels of 1-TFA and DMCU were detected by 60 ng and 7 ng, respectively, at 60 min after treatment (Figure 4A,B). In 2-TFA treated group, the maximal cellular uptakes occurred during the time interval from 30 to 60 min after drug treatment and acquired 100 ng of DMCU, 12 ng of 1-TFA and 1.2 ng of 2-TFA (Figure 4A–C). […] The cellular uptake efficiency of H460 cells was then evaluated in terms of the total quantity of DMCU, 1-TFA, and 2-TFA. […]

A short description of series [2]: Storage stability by HPLC purity / 1H NMR. The class given is physicochemical. The conditions noted are these: room temperature, 6 days, fresh prepared 95.74%. As for the experimental part:
The procedures employed for the synthesis of targeted compounds 1 and 2 are depicted in Scheme 1. The required DMCU was prepared according to a three-step sequence reported in the literature. Initially, the commercially available Boc-L-valine 3 was reacted with 2-aminoethanol 4 in the presence of HOTT and Et3N to provide the amide product 5 in 82% yield. Under treatment with 4-nitrophenyl chloroformate and DIPEA, 5 was converted into 6 in 87% yield. One equivalent or excess amount of 6 was coupled with the deprotonated DMCU, formed in situ by the treatment of DMCU with Cs2CO3, to afford compound 7 and 8, respectively. Compound 7 and 8 thus obtained were subjected to Boc deprotection under the standard conditions to give 1 and 2, respectively. The preliminary stability test was performed with NMR by applying 2 as a typical example. […] Based on our previous experience in the synthesis of DMCU-HMP, the instability could be ascribed to the cross-hydrolysis of carbonate group by the terminal amino group of side chain. Salt formation reactions of the N-terminal L-valine were then carried out to cap the nucleophilic amino group. […] 2-TFA is also stable in DMSO solution (0.1 M concentration). After 6-day storage at room temperate, the purity of 2-TFA remained intact. Accordingly, a similar salt formation procedure was employed to produce the stable 1-TFA. Compound 1-TFA along with 2-TFA were then applied for the following evaluations.
Figure 2 The stability assessments of 2 and 2-TFA. (A) A clear solution of 2 in d-chloroform was subjected to a purity assessment by ^1H NMR spectroscopy at various storage times (fresh prepared (≤1 h); 1 day; 4 days). (B) The HPLC purity of fresh prepared 2-TFA was 95.74%. The fresh prepared 2-TFA in a solid state was stored at room temperature for another 6 days and then dissolved in water for HPLC analysis. The HPLC purity was decided as 95.55%. The fresh prepared 2-TFA was dissolved in DMSO and the resulting solution was stored at room temperature for another 6 days. HPLC purity of 2-TFA in the DMSO solution was 94.66%. […]

Series [3] deals with NCI-H460, NCI-H358 and A549 cell lines. The experiment in a line: In vitro antiproliferative MTT assay, range over the NSCLC lines. The class given is cell-based. The conditions noted are these: Homo sapiens, read-out: IC50 values in these cell lines. As for the experimental part:
Human NSCLC cell lines (NCI-H460, NCI-H358 and A549) were obtained from ATCC. All cell lines were grown in RPMI medium supplemented with 10% fetal bovine serum (FBS) and antibiotics and incubated at 37 °C in a humidified atmosphere with 5% CO2.
Antiproliferative activities to various compounds was assessed using MTT assay. In brief, 2000–5000 cells were seeded in each well of 96-well plates and incubated at 37 °C overnight before drug treatment. After a three-day drug treatment, MTT solution was added to each well and the plates were further incubated at 37 °C for 6 h. Measurement of cell viability was assessed by absorbance at 570 nm. The IC50 values for each drug were determined using CompuSyn software based on the median-effect principle and plot.

Counter-ions that a name gives are not always drawn.

The term IC50 denotes the midpoint of a concentration-inhibition curve.

Take `COc1cc(/C=C/C(=O)C(C)(C)C(=O)/C=C/c2ccc(OC(=O)OCCNC(=O)[C@@H](N)C(C)C)c(OC)c2)ccc1O` [Compound 1-TFA]: in series [1] (1-TFA-treated NCI-H460 cells, at 60 min after treatment), the “maximal uptake level: intracellular 1-TFA” value worked out at 60 ng.

Take `COc1cc(/C=C/C(=O)C(C)(C)C(=O)/C=C/c2ccc(OC(=O)OCCNC(=O)[C@@H](N)C(C)C)c(OC)c2)ccc1OC(=O)OCCNC(=O)[C@@H](N)C(C)C` [Compound 2-TFA]: in series [2] (DMSO solution (0.1 M)), the “HPLC purity after storage in DMSO solution” value is 94.66%. Further, the “HPLC purity after storage as solid” value in series [2] (solid state) turned out to be 95.55%. The “maximal cellular uptake: intracellular 2-TFA” value in series [1] (2-TFA-treated NCI-H460 cells, 30 to 60 min after drug treatment) is 1.2 ng.

As for `COc1cc(/C=C/C(=O)C(C)(C)C(=O)/C=C/c2ccc(O)c(OC)c2)ccc1O` [DMCU, 4,4-Dimethylcurcumin], in series [3], the concentration for half-maximal inhibition (IC50) lay in the range of 1620 to 2500 nM. Moreover, the “maximal uptake: intracellular DMCU” value in series [1] (DMCU-treated NCI-H460 cells, at 1–2 h post-drug treatment, extract of approx. 1 × 10^6 cells) is given as “about 100 ng”.

The values are drawn from PMC8624457, “Synthesis and Characterization of the Ethylene-Carbonate-Linked L-Valine Derivatives of 4,4-Dimethylcurcumin with Potential Anticancer Activities” (Molecules, 2021).
